Reference: ChEMBL document CHEMBL2396590, “Inhibition of HIV-1 integrase dimerization and activity with crosslinked interfacial peptides” (Bioorg Med Chem, 2013)
Calls of active or inactive are those of the source. The rule behind the calls is not given here. Starred links: 1 amine or outer side, 2 acyl side, 3 side chain; linkers in the order of their positions; H or OH if unused. Non-standard residues stand in square brackets, D forms with d. Residues, ends and D or L forms follow the SMILES beside them. NH(CH2)9CO = O=C(CCCCCCCCCN[*:1])[*:2]; NH(CH2)8CO = O=C(CCCCCCCCN[*:1])[*:2]; X1 = O=C(CN1CCN([*:1])CC1)[*:2]; 12Ado = NCCCCCCCCCCCC(=O)O; Aun = NCCCCCCCCCCC(=O)O; AEEA = NCCOCCOCC(=O)O; Aoc = NCCCCCCCC(=O)O; Ahp = NCCCCCCC(=O)O; Ava = NCCCCC(=O)O

Legend:
[1] = target: Human immunodeficiency virus type 1 integrase (Human immunodeficiency virus 1, UniProt Q7ZJM1, C280S/F185K); test: Inhibition of HIV1 3'-processing activity of integrase F185K/C280S double mutant expressed in Escherichia coli BL21 (DE3)
[2] = tested on: Human immunodeficiency virus type 1 integrase (Human immunodeficiency virus 1), Q7ZJM1 [F185K,C280S]; test: Inhibition of HIV1 integrase F185K/C280S double mutant dimerization expressed in Escherichia coli BL21 (DE3) at 110 uM after 1 hr by PAGE analysis

Compound	IC50 [1] [µM]	inhibition [2]
CC[C@H](C)[C@H](NC(=O)[C@H](CC(=O)O)NC(=O)[C@@H](NC(=O)[C@H](C)NC(=O)[C@@H](NC(=O)[C@@H](NC(=O)[C@H](CC(=O)O)NC(=O)[C@@H](NC(=O)[C@@H](NC(=O)[C@H](CCCNC(=N)N)NC(=O)[C@H](CCC(=O)O)NC(=O)CNC(=O)[C@H](C)NC(=O)CCCCCCCCCCCNC(=O)[C@H](CCCNC(=N)N)NC(=O)[C@H](CCCCN)NC(=O)[C@H](Cc1ccccc1)NC(=O)[C@H](CC(N)=O)NC(=O)[C@H](Cc1cnc[nH]1)NC(=O)[C@@H](NC(=O)[C@H](Cc1ccccc1)NC(=O)[C@@H](NC(=O)[C@H](C)NC(=O)[C@H](CCSC)NC(=O)[C@H](CCC(N)=O)NC(=O)[C@@H](NC(=O)[C@H](C)NC(=O)[C@@H](NC(=O)[C@H](CCCCN)NC(=O)[C@H](CC(C)C)NC(=O)[C@@H](N)Cc1cnc[nH]1)[C@@H](C)O)C(C)C)C(C)C)[C@@H](C)CC)[C@@H](C)CC)C(C)C)[C@@H](C)CC)[C@@H](C)CC)[C@@H](C)O)C(=O)N[C@@H](CCC(N)=O)C(N)=O (H-HLKTAVQMAVFIHNFKR[12Ado]AGERIVDIIATDIQ-NH2)	1.3	Active
CC[C@H](C)[C@H](NC(=O)[C@H](CC(=O)O)NC(=O)[C@@H](NC(=O)[C@H](C)NC(=O)[C@@H](NC(=O)[C@@H](NC(=O)[C@H](CC(=O)O)NC(=O)[C@@H](NC(=O)[C@@H](NC(=O)[C@H](CCCNC(=N)N)NC(=O)[C@H](CCC(=O)O)NC(=O)CNC(=O)[C@H](C)NC(=O)COCCOCCNC(=O)[C@H](CCCNC(=N)N)NC(=O)[C@H](CCCCN)NC(=O)[C@H](Cc1ccccc1)NC(=O)[C@H](CC(N)=O)NC(=O)[C@H](Cc1cnc[nH]1)NC(=O)[C@@H](NC(=O)[C@H](Cc1ccccc1)NC(=O)[C@@H](NC(=O)[C@H](C)NC(=O)[C@H](CCSC)NC(=O)[C@H](CCC(N)=O)NC(=O)[C@@H](NC(=O)[C@H](C)NC(=O)[C@@H](NC(=O)[C@H](CCCCN)NC(=O)[C@H](CC(C)C)NC(=O)[C@@H](N)Cc1cnc[nH]1)[C@@H](C)O)C(C)C)C(C)C)[C@@H](C)CC)[C@@H](C)CC)C(C)C)[C@@H](C)CC)[C@@H](C)CC)[C@@H](C)O)C(=O)N[C@@H](CCC(N)=O)C(N)=O (H-HLKTAVQMAVFIHNFKR[AEEA]AGERIVDIIATDIQ-NH2)	1.07	Active
CC[C@H](C)[C@H](NC(=O)[C@H](CC(=O)O)NC(=O)[C@@H](NC(=O)[C@H](C)NC(=O)[C@@H](NC(=O)[C@@H](NC(=O)[C@H](CC(=O)O)NC(=O)[C@@H](NC(=O)[C@@H](NC(=O)[C@H](CCCNC(=N)N)NC(=O)[C@H](CCC(=O)O)NC(=O)CNC(=O)[C@H](C)NC(=O)CCCCCCNC(=O)[C@H](CCCNC(=N)N)NC(=O)[C@H](CCCCN)NC(=O)[C@H](Cc1ccccc1)NC(=O)[C@H](CC(N)=O)NC(=O)[C@H](Cc1cnc[nH]1)NC(=O)[C@@H](NC(=O)[C@H](Cc1ccccc1)NC(=O)[C@@H](NC(=O)[C@H](C)NC(=O)[C@H](CCSC)NC(=O)[C@H](CCC(N)=O)NC(=O)[C@@H](NC(=O)[C@H](C)NC(=O)[C@@H](NC(=O)[C@H](CCCCN)NC(=O)[C@H](CC(C)C)NC(=O)[C@@H](N)Cc1cnc[nH]1)[C@@H](C)O)C(C)C)C(C)C)[C@@H](C)CC)[C@@H](C)CC)C(C)C)[C@@H](C)CC)[C@@H](C)CC)[C@@H](C)O)C(=O)N[C@@H](CCC(N)=O)C(N)=O (H-HLKTAVQMAVFIHNFKR[Ahp]AGERIVDIIATDIQ-NH2)	0.91	Active
CC[C@H](C)[C@H](NC(=O)[C@H](CC(=O)O)NC(=O)[C@@H](NC(=O)[C@H](C)NC(=O)[C@@H](NC(=O)[C@@H](NC(=O)[C@H](CC(=O)O)NC(=O)[C@@H](NC(=O)[C@@H](NC(=O)[C@H](CCCNC(=N)N)NC(=O)[C@H](CCC(=O)O)NC(=O)CNC(=O)[C@H](C)NC(=O)CCCCCCCNC(=O)[C@H](CCCNC(=N)N)NC(=O)[C@H](CCCCN)NC(=O)[C@H](Cc1ccccc1)NC(=O)[C@H](CC(N)=O)NC(=O)[C@H](Cc1cnc[nH]1)NC(=O)[C@@H](NC(=O)[C@H](Cc1ccccc1)NC(=O)[C@@H](NC(=O)[C@H](C)NC(=O)[C@H](CCSC)NC(=O)[C@H](CCC(N)=O)NC(=O)[C@@H](NC(=O)[C@H](C)NC(=O)[C@@H](NC(=O)[C@H](CCCCN)NC(=O)[C@H](CC(C)C)NC(=O)[C@@H](N)Cc1cnc[nH]1)[C@@H](C)O)C(C)C)C(C)C)[C@@H](C)CC)[C@@H](C)CC)C(C)C)[C@@H](C)CC)[C@@H](C)CC)[C@@H](C)O)C(=O)N[C@@H](CCC(N)=O)C(N)=O (H-HLKTAVQMAVFIHNFKR[Aoc]AGERIVDIIATDIQ-NH2)	0.68	Active
CC[C@H](C)[C@H](NC(=O)[C@H](CC(=O)O)NC(=O)[C@@H](NC(=O)[C@H](C)NC(=O)[C@@H](NC(=O)[C@@H](NC(=O)[C@H](CC(=O)O)NC(=O)[C@@H](NC(=O)[C@@H](NC(=O)[C@H](CCCNC(=N)N)NC(=O)[C@H](CCC(=O)O)NC(=O)CNC(=O)[C@H](C)NC(=O)CCCCCCCCCCNC(=O)[C@H](CCCNC(=N)N)NC(=O)[C@H](CCCCN)NC(=O)[C@H](Cc1ccccc1)NC(=O)[C@H](CC(N)=O)NC(=O)[C@H](Cc1cnc[nH]1)NC(=O)[C@@H](NC(=O)[C@H](Cc1ccccc1)NC(=O)[C@@H](NC(=O)[C@H](C)NC(=O)[C@H](CCSC)NC(=O)[C@H](CCC(N)=O)NC(=O)[C@@H](NC(=O)[C@H](C)NC(=O)[C@@H](NC(=O)[C@H](CCCCN)NC(=O)[C@H](CC(C)C)NC(=O)[C@@H](N)Cc1cnc[nH]1)[C@@H](C)O)C(C)C)C(C)C)[C@@H](C)CC)[C@@H](C)CC)C(C)C)[C@@H](C)CC)[C@@H](C)CC)[C@@H](C)O)C(=O)N[C@@H](CCC(N)=O)C(N)=O (H-HLKTAVQMAVFIHNFKR[Aun]AGERIVDIIATDIQ-NH2)	0.85	Active
CC[C@H](C)[C@H](NC(=O)[C@H](CC(=O)O)NC(=O)[C@@H](NC(=O)[C@H](C)NC(=O)[C@@H](NC(=O)[C@@H](NC(=O)[C@H](CC(=O)O)NC(=O)[C@@H](NC(=O)[C@@H](NC(=O)[C@H](CCCNC(=N)N)NC(=O)[C@H](CCC(=O)O)NC(=O)CNC(=O)[C@H](C)NC(=O)CCCCNC(=O)[C@H](CCCNC(=N)N)NC(=O)[C@H](CCCCN)NC(=O)[C@H](Cc1ccccc1)NC(=O)[C@H](CC(N)=O)NC(=O)[C@H](Cc1cnc[nH]1)NC(=O)[C@@H](NC(=O)[C@H](Cc1ccccc1)NC(=O)[C@@H](NC(=O)[C@H](C)NC(=O)[C@H](CCSC)NC(=O)[C@H](CCC(N)=O)NC(=O)[C@@H](NC(=O)[C@H](C)NC(=O)[C@@H](NC(=O)[C@H](CCCCN)NC(=O)[C@H](CC(C)C)NC(=O)[C@@H](N)Cc1cnc[nH]1)[C@@H](C)O)C(C)C)C(C)C)[C@@H](C)CC)[C@@H](C)CC)C(C)C)[C@@H](C)CC)[C@@H](C)CC)[C@@H](C)O)C(=O)N[C@@H](CCC(N)=O)C(N)=O (H-HLKTAVQMAVFIHNFKR[Ava]AGERIVDIIATDIQ-NH2)	3.75	
CC[C@H](C)[C@H](NC(=O)[C@H](CC(=O)O)NC(=O)[C@@H](NC(=O)[C@H](C)NC(=O)[C@@H](NC(=O)[C@@H](NC(=O)[C@H](CC(=O)O)NC(=O)[C@@H](NC(=O)[C@@H](NC(=O)[C@H](CCCNC(=N)N)NC(=O)[C@H](CCC(=O)O)NC(=O)CNC(=O)[C@H](C)NC(=O)CCCCCCCCNC(=O)[C@H](CCCNC(=N)N)NC(=O)[C@H](CCCCN)NC(=O)[C@H](Cc1ccccc1)NC(=O)[C@H](CC(N)=O)NC(=O)[C@H](Cc1cnc[nH]1)NC(=O)[C@@H](NC(=O)[C@H](Cc1ccccc1)NC(=O)[C@@H](NC(=O)[C@H](C)NC(=O)[C@H](CCSC)NC(=O)[C@H](CCC(N)=O)NC(=O)[C@@H](NC(=O)[C@H](C)NC(=O)[C@@H](NC(=O)[C@H](CCCCN)NC(=O)[C@H](CC(C)C)NC(=O)[C@@H](N)Cc1cnc[nH]1)[C@@H](C)O)C(C)C)C(C)C)[C@@H](C)CC)[C@@H](C)CC)C(C)C)[C@@H](C)CC)[C@@H](C)CC)[C@@H](C)O)C(=O)N[C@@H](CCC(N)=O)C(N)=O (H-HLKTAVQMAVFIHNFKR[NH(CH2)8CO]AGERIVDIIATDIQ-NH2)	0.72	Active
CC[C@H](C)[C@H](NC(=O)[C@H](CC(=O)O)NC(=O)[C@@H](NC(=O)[C@H](C)NC(=O)[C@@H](NC(=O)[C@@H](NC(=O)[C@H](CC(=O)O)NC(=O)[C@@H](NC(=O)[C@@H](NC(=O)[C@H](CCCNC(=N)N)NC(=O)[C@H](CCC(=O)O)NC(=O)CNC(=O)[C@H](C)NC(=O)CCCCCCCCCNC(=O)[C@H](CCCNC(=N)N)NC(=O)[C@H](CCCCN)NC(=O)[C@H](Cc1ccccc1)NC(=O)[C@H](CC(N)=O)NC(=O)[C@H](Cc1cnc[nH]1)NC(=O)[C@@H](NC(=O)[C@H](Cc1ccccc1)NC(=O)[C@@H](NC(=O)[C@H](C)NC(=O)[C@H](CCSC)NC(=O)[C@H](CCC(N)=O)NC(=O)[C@@H](NC(=O)[C@H](C)NC(=O)[C@@H](NC(=O)[C@H](CCCCN)NC(=O)[C@H](CC(C)C)NC(=O)[C@@H](N)Cc1cnc[nH]1)[C@@H](C)O)C(C)C)C(C)C)[C@@H](C)CC)[C@@H](C)CC)C(C)C)[C@@H](C)CC)[C@@H](C)CC)[C@@H](C)O)C(=O)N[C@@H](CCC(N)=O)C(N)=O (H-HLKTAVQMAVFIHNFKR[NH(CH2)9CO]AGERIVDIIATDIQ-NH2)	0.76	Active
CC[C@H](C)[C@H](NC(=O)[C@H](CC(=O)O)NC(=O)[C@@H](NC(=O)[C@H](C)NC(=O)[C@@H](NC(=O)[C@@H](NC(=O)[C@H](CC(=O)O)NC(=O)[C@@H](NC(=O)[C@@H](NC(=O)[C@H](CCCNC(=N)N)NC(=O)[C@H](CCC(=O)O)NC(=O)CNC(=O)[C@H](C)NC(=O)CN1CCN(C(=O)[C@H](CCCNC(=N)N)NC(=O)[C@H](CCCCN)NC(=O)[C@H](Cc2ccccc2)NC(=O)[C@H](CC(N)=O)NC(=O)[C@H](Cc2cnc[nH]2)NC(=O)[C@@H](NC(=O)[C@H](Cc2ccccc2)NC(=O)[C@@H](NC(=O)[C@H](C)NC(=O)[C@H](CCSC)NC(=O)[C@H](CCC(N)=O)NC(=O)[C@@H](NC(=O)[C@H](C)NC(=O)[C@@H](NC(=O)[C@H](CCCCN)NC(=O)[C@H](CC(C)C)NC(=O)[C@@H](N)Cc2cnc[nH]2)[C@@H](C)O)C(C)C)C(C)C)[C@@H](C)CC)CC1)[C@@H](C)CC)C(C)C)[C@@H](C)CC)[C@@H](C)CC)[C@@H](C)O)C(=O)N[C@@H](CCC(N)=O)C(N)=O (H-HLKTAVQMAVFIHNFKR[X1]AGERIVDIIATDIQ-NH2)	0.46	Active
H-AGERIVDIIATDIQ-NH2	3	
H-HLKTAVQMAVFIHNFKR-OH	2	
